In patent US12252481B2, “Anti-viral compounds” (Aligos Therapeutics, Inc., priority 2021, dated 2025):
Like-named read-outs stand apart in the source and are kept apart here.

Tests used:
[1] = biological target: T1, SARS-Cov-2 3CLpro (Severe acute respiratory syndrome coronavirus 2, UniProt P0DTD1); assay: biochemical; settings: read-out: SARS-Cov-2 IC50 (class)
T1 construct: 3CLpro and HRV3C was added using a Multidrop Combi

[2] = biological target: T2, HRV3C (Human rhinovirus 14, UniProt P03303); assay: biochemical; set-up: species or system HRV
T2 construct: 3CLpro and HRV3C was added using a Multidrop Combi
T2 sequence (P03303 1538-1719): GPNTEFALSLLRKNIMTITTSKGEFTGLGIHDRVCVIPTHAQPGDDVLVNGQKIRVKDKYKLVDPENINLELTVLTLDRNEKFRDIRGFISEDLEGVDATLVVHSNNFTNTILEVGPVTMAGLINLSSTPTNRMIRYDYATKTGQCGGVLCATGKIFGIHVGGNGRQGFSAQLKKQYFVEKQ

[3] = tested on: human beta-coronavirus OC43; assay: OC43 coronavirus antiviral assay in HeLa cells (cytopathic effect, cell-titer-glo); type: cell-based; settings: 6 days at 33° C., read-out: EC50 (class)
[4] = tested on: B.1.1.7 lineage SARS-CoV-2; assay: microbe, parasite or virus in culture; type: cell-based; settings: read-out: A549-dual_ACE2_TMPRSS2 (EC50)
[5] = biological target: T3, human cathepsin L (Homo sapiens, UniProt P07711); assay: Cathepsin L assay (Z-FR-AMC fluorescence); type: biochemical; settings: 10 pM human cathepsin L, 30 mins preincubation, Z-FR-AMC 2 μM
T3 construct: purchased R&D Systems
T3 sequence (P07711 114-333): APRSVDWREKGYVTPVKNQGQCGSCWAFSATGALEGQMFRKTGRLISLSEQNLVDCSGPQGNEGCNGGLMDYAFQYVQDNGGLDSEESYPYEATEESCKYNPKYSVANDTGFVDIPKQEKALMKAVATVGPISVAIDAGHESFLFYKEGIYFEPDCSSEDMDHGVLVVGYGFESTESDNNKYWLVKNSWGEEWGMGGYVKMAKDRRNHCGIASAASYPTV
Summary of the method: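 IC50 values were taken from four-parameter fits of fluorescence read at 355/460 nm every 2 minutes for 30 minutes. The reaction started when 2 μM Z-FR-AMC was added. Before that, 10 pM human cathepsin L had been preincubated with inhibitor for 30 minutes.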

[6] = tested on: HeLa cells
[7] = tested on: Vero E6-eGFP cells; settings: read-out: VeroE6 + CP (CC50), absence of virus, numeric values
[8] = tested on: A549-dual_ACE2_TMPRSS2 cells
[9] = tested on: SARS-CoV-2-GHB-03021/2020; type: cell-based; settings: read-out: VeroE6 + CP (EC50)
[10] = tested on: HeLa cells; assay: Cytotoxicity in HeLa cells without OC43 virus (cell-titer-glo); settings: HeLa cells without OC43 virus
[11] = 3CLpro, 30 mins preincubation, SAMDI-MS
[12] = HRV3C, 30 mins preincubation, SAMDI-MS, read-out: HRV IC50 (bound)
[13] = read-out: A549-dual_ACE2_TMPRSS2 (CC50), assay medium without virus, MTS, numeric values

In the case of `N#C[C@H](C[C@@H]1CCNC1=O)NC(=O)[C@@H]1[C@@H]2[C@H](CN1C(=O)[C@@H]1C[C@]13CCCc1ccccc13)[C@@H]1C=C[C@H]2C1` (single isomer, unassigned) [Example 8], the IC50 [1, 11] is reported as 0.02 to 0.2 µM, the IC50 [2, 12] is reported as over 10 µM and the EC50 [3] is reported as 0.1 to 1 µM. The EC50 [4] was under 0.1 µM, the IC50 [5] was at least 10 µM and the CC50 [6] was over 100 µM. For the same compound, the CC50 [7] was over 50 µM and the CC50 [8, 13] was over 10 µM.
With `CC(C)(C)[C@H](NC(=O)C1(C(F)(F)F)CC1)C(=O)N1C[C@H]2[C@@H]([C@H]1C(=O)N[C@H](C#N)C[C@@H]1CCNC1=O)[C@H]1C=C[C@@H]2C1` [Example 20, (1R,2S,3S,6R,7S)—N-[(1S)-1-cyano-2-[(3S)-2-oxopyrrolidin-3-yl]ethyl]-4-[(2S)-3,3-dimethyl-2-{[1-(trifluoromethyl)cyclopropyl]formamido}butanoyl]-4-azatricyclo[5.2.1.0^{2,6}]dec-8-ene-3-carboxamide] the IC50 [1, 11] was under 0.02 µM, the IC50 [2, 12] was over 10 µM and the EC50 [3] was under 0.1 µM. It also gave an EC50 [9] of under 0.1 µM, an EC50 [4] of 0.1 to 1 µM and an IC50 [5] of at least 10 µM. It also gave a CC50 [6] of over 100 µM, a CC50 [7] of over 50 µM and a CC50 [8, 13] of over 10 µM.
Work on `CC(C)(C)[C@H](NC(=O)C(F)(Cl)Cl)C(=O)N1C[C@H]2[C@@H]([C@H]1C(=O)N[C@H](C#N)C[C@@H]1CCNC1=O)[C@H]1C=C[C@@H]2C1` [Compound 48, (1R,2S,3S,6R,7S)—N-[(1S)-1-cyano-2-[(3S)-2-oxopyrrolidin-3-yl]ethyl]-4-[(2S)-2-(2,2-dichloro-2-fluoroacetamido)-3,3-dimethylbutanoyl]-4-azatricyclo[5.2.1.0^{2,6}]dec-8-ene-3-carboxamide] yielded an IC50 [1] of under 0.02 µM, an IC50 [2, 12] of over 10 µM and an EC50 [3] of under 0.1 µM. The EC50 [9] was under 0.1 µM, the EC50 [4] was under 0.1 µM and the IC50 [5] was at least 10 µM. For the same compound, the CC50 [7] was over 50 µM, the CC50 [8, 13] was over 10 µM and the CC50 [10] was over 100 µM.
Compound `CC(C)(C1CC1)[C@H](NC(=O)C(F)(F)F)C(=O)N1C[C@H]2[C@@H]([C@H]1C(=O)N[C@H](C#N)C[C@@H]1CCNC1=O)[C@H]1C=C[C@@H]2C1` [Compound 69, (1R,2S,3S,6R,7S)—N-[(1S)-1-cyano-2-[(3S)-2-oxopyrrolidin-3-yl]ethyl]-4-[(2S)-3-cyclopropyl-3-methyl-2-(2,2,2-trifluoroacetamido)butanoyl]-4-azatricyclo[5.2.1.0^{2,6}]dec-8-ene-3-carboxamide] has an IC50 [1] of under 0.02 µM, an IC50 [2, 12] of over 10 µM and an EC50 [3] of under 0.1 µM. For the same compound, the EC50 [4] was under 0.1 µM, the IC50 [5] was at least 10 µM and the CC50 [8, 13] was over 10 µM. It also gave a CC50 [10] of over 100 µM.
Work on `C#CC(C)(C)[C@H](NC(=O)C1(F)CC1)C(=O)N1C[C@H]2[C@@H]([C@H]1C(=O)N[C@H](C#N)C[C@@H]1CCNC1=O)[C@H]1C=C[C@@H]2C1` [Compound 63, (1R,2S,3S,6R,7S)—N-[(1S)-1-cyano-2-[(3S)-2-oxopyrrolidin-3-yl]ethyl]-4-[(2S)-2-[(1-fluorocyclopropyl)formamido]-3,3-dimethylpent-4-ynoyl]-4-azatricyclo[5.2.1.0^{2,6}]dec-8-ene-3-carboxamide] yielded an IC50 [1, 11] of under 0.02 µM, an IC50 [2, 12] of over 10 µM and an EC50 [3] of under 0.1 µM. The EC50 [4] was under 0.1 µM, the IC50 [5] was at least 10 µM and the CC50 [6] was over 100 µM. For the same compound, the CC50 [8, 13] was over 10 µM.
`CC1(C(=O)N[C@H](C(=O)N2C[C@H]3[C@@H]([C@H]2C(=O)N[C@H](C#N)C[C@@H]2CCNC2=O)[C@H]2C=C[C@@H]3C2)C(C)(C)C)CC1` [Compound 47, (1R,2S,3S,6R,7S)—N-[(1S)-1-cyano-2-[(3S)-2-oxopyrrolidin-3-yl]ethyl]-4-[(2S)-3,3-dimethyl-2-[(1-methylcyclopropyl)formamido]butanoyl]-4-azatricyclo[5.2.1.0^{2,6}]dec-8-ene-3-carboxamide] gave an IC50 [1, 11] of 0.02 to 0.2 µM, an IC50 [2, 12] of over 10 µM and an EC50 [3] of 0.1 to 1 µM. For the same compound, the IC50 [5] was at least 10 µM, the CC50 [6] was over 100 µM and the CC50 [7] was over 50 µM. The CC50 [8, 13] was over 10 µM.
For `CC(C)(C)[C@H](NC(=O)C1CC1)C(=O)N1C[C@H]2[C@@H]([C@H]1C(=O)N[C@H](C#N)C[C@@H]1CCNC1=O)[C@H]1C=C[C@@H]2C1` [Example 21, (1R,2S,3S,6R,7S)—N-[(1S)-1-cyano-2-[(3S)-2-oxopyrrolidin-3-yl]ethyl]-4-[(2S)-2-(cyclopropylformamido)-3,3-dimethylbutanoyl]-4-azatricyclo[5.2.1.0^{2,6}]dec-8-ene-3-carboxamide], the IC50 [1, 11] was under 0.02 µM, the IC50 [2, 12] was over 10 µM and the EC50 [3] was under 0.1 µM. It also gave an EC50 [9] of under 0.1 µM, an EC50 [4] of under 0.1 µM and an IC50 [5] of at least 10 µM. It also gave a CC50 [6] of over 100 µM, a CC50 [7] of over 50 µM and a CC50 [8, 13] of over 10 µM.
`C[C@@H](OC(C)(C)C)[C@H](NC(=O)C(F)(F)F)C(=O)N1C[C@H]2[C@@H]([C@H]1C(=O)N[C@H](C#N)C[C@@H]1CCNC1=O)[C@H]1C=C[C@@H]2C1` [Example 3, (1R,2S,3S,6R,7S)-4-[(2S,3R)-3-(tert-butoxy)-2-(2,2,2-trifluoroacetamido)butanoyl]-N-[(1S)-1-cyano-2-[(3S)-2-oxopyrrolidin-3-yl]ethyl]-4-azatricyclo[5.2.1.0^{2,6}]dec-8-ene-3-carboxamide] showed an IC50 [1] of under 0.02 µM, an IC50 [2, 12] of over 10 µM and an EC50 [3] of under 0.1 µM. The EC50 [9] was under 0.1 µM, the EC50 [4] was under 0.1 µM and the IC50 [5] was at least 10 µM. The CC50 [7] was over 50 µM, the CC50 [8, 13] was over 10 µM and the CC50 [10] was over 100 µM.
`CC(C)(C)[C@H](NC(=O)C(F)(F)F)C(=O)N1C[C@H]2[C@@H]([C@H]1C(=O)N[C@H](C#N)CC1Cn3ncnc3NC1=O)[C@H]1C=C[C@@H]2C1` (stereo partly drawn) [Compound 51, (1R,2S,3S,6R,7S)—N-[(1S)-1-cyano-2-{5-oxo-4H,6H,7H-[1,2,4]triazolo[1,5-α]pyrimidin-6-yl}ethyl]-4-[(2S)-3,3-dimethyl-2-(2,2,2-trifluoroacetamido)butanoyl]-4-azatricyclo[5.2.1.0^{2,6}]dec-8-ene-3-carboxamide] gave an IC50 [1] of under 0.02 µM, an IC50 [2, 12] of over 10 µM and an EC50 [3] of 0.1 to 1 µM. For the same compound, the EC50 [4] was 1 to 10 µM, the IC50 [5] was at least 10 µM and the CC50 [7] was over 50 µM. For the same compound, the CC50 [8, 13] was over 10 µM and the CC50 [10] was over 100 µM.
Work on `C=C1C[C@@H]2C[C@H]1[C@H]1[C@@H]2CN(C(=O)[C@@H](NC(=O)C(F)(F)F)C(C)(C)C)[C@@H]1C(=O)N[C@H](C#N)C[C@@H]1CCNC1=O` [Compound 62, (1S,2S,3S,6R,7S)—N-[(1S)-1-cyano-2-[(3S)-2-oxopyrrolidin-3-yl]ethyl]-4-[(2S)-3,3-dimethyl-2-(2,2,2-trifluoroacetamido)butanoyl]-9-methylidene-4-azatricyclo[5.2.1.0^{2,6}]decane-3-carboxamide] yielded an IC50 [1] of under 0.02 µM, an IC50 [2, 12] of over 10 µM and an EC50 [3] of under 0.1 µM. It also gave an EC50 [4] of under 0.1 µM, an IC50 [5] of at least 10 µM and a CC50 [8, 13] of over 10 µM. For the same compound, the CC50 [10] was over 100 µM.
`CC(C)(C)[C@H](NC(=O)C(F)(F)F)C(=O)N1C[C@H]2[C@@H]([C@H]1C(=O)NC(C[C@@H]1CCNC1=O)C(=O)C(=O)NC1CC1)[C@H]1C=C[C@@H]2C1` (stereo partly drawn) [Example 10, N-cyclopropyl-3-{[(1R,2S,3S,6R,7S)-4-[(2S)-3,3-dimethyl-2-(2,2,2-trifluoroacetamido)butanoyl]-4-azatricyclo[5.2.1.0^{2,6}]dec-8-en-3-yl]formamido}-2-oxo-4-[(3S)-2-oxopyrrolidin-3-yl]butanamide] was tested, and the IC50 [1] was under 0.02 µM, the IC50 ([2]; HRV3C, 30 mins preincubation, SAMDI-MS, read-out: HRV IC50 (class)) was 0.02 to 0.2 µM and the EC50 [3] was 0.1 to 1 µM. The IC50 [5] was at least 10 µM, the CC50 [7] was over 50 µM and the CC50 [8, 13] was over 10 µM. For the same compound, the CC50 ([10]; read-out: CC50 (class)) was over 10 µM.
`C#CC(C)(C)[C@H](NC(=O)C(F)(F)F)C(=O)N1C[C@H]2[C@@H]([C@H]1C(=O)N[C@H](C#N)C[C@@H]1CCNC1=O)[C@H]1C=C[C@@H]2C1` [Example 7, (1R,2S,3S,6R,7S)—N-[(1S)-1-cyano-2-[(3S)-2-oxopyrrolidin-3-yl]ethyl]-4-[(2S)-3,3-dimethyl-2-(2,2,2-trifluoroacetamido)pent-4-ynoyl]-4-azatricyclo[5.2.1.0^{2,6}]dec-8-ene-3-carboxamide] showed an IC50 [1] of under 0.02 µM, an IC50 [2, 12] of over 10 µM and an EC50 [3] of under 0.1 µM. The EC50 [9] was under 0.1 µM, the EC50 [4] was under 0.1 µM and the IC50 [5] was at least 10 µM. It also gave a CC50 [7] of over 50 µM, a CC50 [8, 13] of over 10 µM and a CC50 [10] of over 100 µM.
Work on `CC(C)(C)[C@H](NC(=O)c1cnccn1)C(=O)N1C[C@H]2[C@@H]([C@H]1C(=O)N[C@H](C#N)C[C@@H]1CCNC1=O)[C@H]1C=C[C@@H]2C1` [Example 6, (1R,2S,3S,6R,7S)—N-[(1S)-1-cyano-2-[(3S)-2-oxopyrrolidin-3-yl]ethyl]-4-[(2S)-3,3-dimethyl-2-(pyrazin-2-ylformamido)butanoyl]-4-azatricyclo[5.2.1.0^{2,6}]dec-8-ene-3-carboxamide] yielded an IC50 [1] of 0.02 to 0.2 µM, an IC50 ([2]; read-out: HRV IC50 (bound)) of over 10 µM and an EC50 [3] of under 0.1 µM. The EC50 [9] was 1 to 10 µM, the EC50 [4] was 1 to 10 µM and the IC50 [5] was at least 10 µM. For the same compound, the CC50 [6] was over 100 µM and the CC50 [8] was over 10 µM.
